Patent US6737383B1, “Herbicidal oxadiazolidines” (priority 1999, dated 2004)

Legend:
morningglory = experiment: Test B pre/postemergence morningglory; assay type: in vivo, Ipomoea hederacea
How it was run: (§1)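 Test chemicals in a non-phytotoxic solvent mixture with surfactant were sprayed preemergence onto planted seeds and postemergence onto plants 2 to 18 cm tall (1- to 4-leaf stage). After twelve to sixteen days in a greenhouse, injury was visually rated against untreated controls from 0 (no effect) to 10 (complete control).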

sugar beet = experiment: Test B pre/postemergence sugar beet; assay type: in vivo, Beta vulgaris
How it was run: as §1

purple nutsedge = experiment: Test B pre/postemergence purple nutsedge; assay type: in vivo, Cyperus rotundus
How it was run: as §1

rape = experiment: Test B pre/postemergence rape; assay type: in vivo, Brassica napus
How it was run: as §1

giant foxtail = experiment: Test B pre/postemergence giant foxtail; assay type: in vivo, Setaria faberii
How it was run: as §1

surinam grass = experiment: Test B pre/postemergence surinam grass; assay type: in vivo, Brachiaria decumbens
How it was run: as §1

wild oat = experiment: Test B pre/postemergence wild oat; assay type: in vivo, Avena fatua
How it was run: as §1

corn = experiment: Test B pre/postemergence corn; assay type: in vivo, Zea mays
How it was run: as §1

blackgrass = experiment: Test B pre/postemergence blackgrass; assay type: in vivo, Alopecurus myosuroides
How it was run: as §1

soybean = experiment: Test B pre/postemergence soybean; assay type: in vivo, Glycine max
How it was run: as §1

crabgrass = experiment: Test B pre/postemergence crabgrass; assay type: in vivo, Digitaria sanguinalis
How it was run: as §1

wheat = experiment: Test B pre/postemergence wheat; assay type: in vivo, Triticum aestivum
How it was run: as §1

pigweed = experiment: Test B pre/postemergence pigweed; assay type: in vivo, Amaranthus retroflexus
How it was run: as §1

cocklebur = experiment: Test B pre/postemergence cocklebur; assay type: in vivo, Xanthium strumarium
How it was run: as §1

velvetleaf = experiment: Test B pre/postemergence velvetleaf; assay type: in vivo, Abutilon theophrasti
How it was run: as §1

bedstraw = experiment: Test B pre/postemergence bedstraw; assay type: in vivo, Galium aparine
How it was run: as §1

[1] = Postemergence, Rate 62 g/ha, scale 0 to 10, 0 is no effect, 10 is complete control
[2] = Postemergence, Rate 125 g/ha, scale of 0 to 10 where 0 is no effect and 10 is complete control
[3] = Postemergence, Rate 250 g/ha, scale of 0 to 10, 0 is no effect, 10 is complete control
[4] = Postemergence, Rate 500 g/ha, scale of 0 to 10 where 0 is no effect and 10 is complete control
[5] = Preemergence, Rate 62 g/ha, scale of 0 to 10 where 0 is no effect and 10 is complete control
[6] = Preemergence, Rate 125 g/ha, scale of 0 to 10 where 0 is no effect and 10 is complete control
[7] = Preemergence, Rate 250 g/ha, scale 0 to 10 (0 no effect, 10 complete control)
[8] = Preemergence, Rate 500 g/ha, scale of 0 to 10 where 0 is no effect and 10 is complete control

SMILES: C=C(Cn1c(=O)on(C(=O)N(c2ccccc2)C(C)C)c1=O)C(C)(C)C [Compound 648]
- Plant response rating, Morningglory (morningglory; [1]): 6
- Morningglory plant response rating (morningglory; [2]): 10
- Morningglory plant response rating (morningglory; [3]): 10
- Plant response rating, Morningglory (morningglory; [4]): 10
- Morningglory plant response rating (morningglory; [5]): 0
- Morningglory plant response rating (morningglory; [6]): 0
- Plant response rating, Morningglory (morningglory; [7]): 0
- Plant response rating, Morningglory (morningglory; [8]): 0
- Plant response rating, Sugarbeets (sugar beet; [1]): 0
- Sugarbeets plant response rating (sugar beet; [2]): 0
- Sugarbeets plant response rating (sugar beet; [5]): 0
- Sugarbeets plant response rating (sugar beet; [6]): 0
- Plant response rating, Sugarbeets (sugar beet; [7]): 0
- Plant response rating, Sugarbeets (sugar beet; [8]): 0
- Plant response rating, Nutsedge (purple nutsedge; [1]): 0
- Nutsedge plant response rating (purple nutsedge; [2]): 0
- Plant response rating, Nutsedge (purple nutsedge; [4]): 0
- Nutsedge plant response rating (purple nutsedge; [5]): 0
- Nutsedge plant response rating (purple nutsedge; [6]): 0
- Plant response rating, Nutsedge (purple nutsedge; [7]): 0
- Plant response rating, Nutsedge (purple nutsedge; [8]): 0
- Plant response rating, Rape (rape; [1]): 0
- Rape plant response rating (rape; [2]): 0
- Plant response rating, Rape (rape; [4]): 2
- Rape plant response rating (rape; [5]): 0
- Rape plant response rating (rape; [6]): 0
- Plant response rating, Rape (rape; [7]): 0
- Plant response rating, Rape (rape; [8]): 0
- Plant response rating, Giant foxtail (giant foxtail; [1]): 0
- Giant foxtail plant response rating (giant foxtail; [2]): 0
- Giant foxtail plant response rating (giant foxtail; [3]): 0
- Plant response rating, Giant foxtail (giant foxtail; [4]): 3
- Giant foxtail plant response rating (giant foxtail; [5]): 5
- Giant foxtail plant response rating (giant foxtail; [6]): 9
- Plant response rating, Giant foxtail (giant foxtail; [7]): 9
- Plant response rating, Giant foxtail (giant foxtail; [8]): 9
- Plant response rating, B. signalgrass (surinam grass; [1]): 0
- Plant response rating, B. signalgrass (surinam grass; [2]): 0
- B. signalgrass plant response rating (surinam grass; [3]): 0
- Plant response rating, B. signalgrass (surinam grass; [4]): 0
- B. signalgrass plant response rating (surinam grass; [5]): 0
- B. signalgrass plant response rating (surinam grass; [6]): 0
- Plant response rating, B. signalgrass (surinam grass; [7]): 0
- Plant response rating, B. signalgrass (surinam grass; [8]): 5
- Plant response rating, Wild oats (wild oat; [1]): 0
- Wild oats plant response rating (wild oat; [2]): 0
- Wild oats plant response rating (wild oat; [5]): 0
- Wild oats plant response rating (wild oat; [6]): 0
- Plant response rating, Wild oats (wild oat; [7]): 0
- Plant response rating, Wild oats (wild oat; [8]): 0
- Plant response rating, Corn (corn; [1]): 0
- Corn plant response rating (corn; [2]): 0
- Corn plant response rating (corn; [3]): 0
- Plant response rating, Corn (corn; [4]): 0
- Corn plant response rating (corn; [5]): 0
- Corn plant response rating (corn; [6]): 0
- Plant response rating, Corn (corn; [7]): 0
- Plant response rating, Corn (corn; [8]): 0
- Plant response rating, Blackgrass (blackgrass; [1]): 0
- Blackgrass plant response rating (blackgrass; [2]): 0
- Blackgrass plant response rating (blackgrass; [3]): 0
- Plant response rating, Blackgrass (blackgrass; [4]): 0
- Blackgrass plant response rating (blackgrass; [5]): 0
- Blackgrass plant response rating (blackgrass; [6]): 0
- Plant response rating, Blackgrass (blackgrass; [7]): 2
- Plant response rating, Blackgrass (blackgrass; [8]): 5
- Plant response rating, Soybean (soybean; [1]): 0
- Soybean plant response rating (soybean; [2]): 2
- Soybean plant response rating (soybean; [5]): 0
- Soybean plant response rating (soybean; [6]): 0
- Plant response rating, Soybean (soybean; [7]): 0
- Plant response rating, Soybean (soybean; [8]): 0
- Plant response rating, Crabgrass (crabgrass; [1]): 0
- Crabgrass plant response rating (crabgrass; [2]): 0
- Crabgrass plant response rating (crabgrass; [3]): 0
- Plant response rating, Crabgrass (crabgrass; [4]): 7
- Crabgrass plant response rating (crabgrass; [5]): 0
- Crabgrass plant response rating (crabgrass; [6]): 8
- Plant response rating, Crabgrass (crabgrass; [7]): 9
- Plant response rating, Crabgrass (crabgrass; [8]): 9
- Plant response rating, Wheat (wheat; [1]): 0
- Wheat plant response rating (wheat; [2]): 0
- Wheat plant response rating (wheat; [5]): 0
- Wheat plant response rating (wheat; [6]): 0
- Plant response rating, Wheat (wheat; [7]): 0
- Plant response rating, Wheat (wheat; [8]): 0
- Plant response rating, Redroot pigweed (pigweed; [1]): 0
- Redroot pigweed plant response rating (pigweed; [2]): 3
- Redroot pigweed plant response rating (pigweed; [5]): 0
- Redroot pigweed plant response rating (pigweed; [6]): 0
- Plant response rating, Redroot pigweed (pigweed; [7]): 0
- Plant response rating, Redroot pigweed (pigweed; [8]): 2
- Plant response rating, Cocklebur (cocklebur; [1]): 0
- Cocklebur plant response rating (cocklebur; [2]): 0
- Cocklebur plant response rating (cocklebur; [3]): 0
- Plant response rating, Cocklebur (cocklebur; [4]): 2
- Cocklebur plant response rating (cocklebur; [5]): 0
- Cocklebur plant response rating (cocklebur; [6]): 0
- Plant response rating, Cocklebur (cocklebur; [8]): 0
- Plant response rating, Velvetleaf (velvetleaf; [1]): 0
- Velvetleaf plant response rating (velvetleaf; [2]): 0
- Velvetleaf plant response rating (velvetleaf; [5]): 0
- Velvetleaf plant response rating (velvetleaf; [6]): 0
- Plant response rating, Velvetleaf (velvetleaf; [7]): 0
- Plant response rating, Velvetleaf (velvetleaf; [8]): 0
- Bedstraw plant response rating (bedstraw; [2]): 0
- Bedstraw plant response rating (bedstraw; [5]): 0
- Bedstraw plant response rating (bedstraw; [6]): 0
- Plant response rating, Bedstraw (bedstraw; [7]): 0
- Plant response rating, Bedstraw (bedstraw; [8]): 0

SMILES: CCn1ncc(Cn2c(=O)on(C(=O)N(c3ccc(Cl)cc3)C(C)C)c2=O)c1Cl [Compound 684]
- Morningglory plant response rating (morningglory; [5]): 0
- Plant response rating, Morningglory (morningglory; [6]): 0
- Sugarbeets plant response rating (sugar beet; [5]): 0
- Plant response rating, Sugarbeets (sugar beet; [6]): 0
- Nutsedge plant response rating (purple nutsedge; [5]): 0
- Plant response rating, Nutsedge (purple nutsedge; [6]): 0
- Rape plant response rating (rape; [5]): 0
- Plant response rating, Rape (rape; [6]): 0
- Giant foxtail plant response rating (giant foxtail; [5]): 7
- Plant response rating, Giant foxtail (giant foxtail; [6]): 9
- B. signalgrass plant response rating (surinam grass; [5]): 0
- Plant response rating, B. signalgrass (surinam grass; [6]): 0
- Plant response rating, B. signalgrass (surinam grass; [7]): 4
- Plant response rating, B. signalgrass (surinam grass; [8]): 5
- Wild oats plant response rating (wild oat; [5]): 0
- Plant response rating, Wild oats (wild oat; [6]): 0
- Corn plant response rating (corn; [5]): 0
- Plant response rating, Corn (corn; [6]): 0
- Plant response rating, Corn (corn; [7]): 0
- Blackgrass plant response rating (blackgrass; [5]): 1
- Plant response rating, Blackgrass (blackgrass; [6]): 3
- Plant response rating, Blackgrass (blackgrass; [7]): 4
- Plant response rating, Blackgrass (blackgrass; [8]): 7
- Soybean plant response rating (soybean; [5]): 0
- Plant response rating, Soybean (soybean; [6]): 0
- Crabgrass plant response rating (crabgrass; [5]): 3
- Plant response rating, Crabgrass (crabgrass; [6]): 7
- Plant response rating, Crabgrass (crabgrass; [7]): 9
- Wheat plant response rating (wheat; [5]): 0
- Plant response rating, Wheat (wheat; [6]): 0
- Redroot pigweed plant response rating (pigweed; [5]): 0
- Plant response rating, Redroot pigweed (pigweed; [6]): 0
- Cocklebur plant response rating (cocklebur; [5]): 0
- Plant response rating, Cocklebur (cocklebur; [6]): 0
- Plant response rating, Cocklebur (cocklebur; [7]): 0
- Plant response rating, Cocklebur (cocklebur; [8]): 0
- Velvetleaf plant response rating (velvetleaf; [5]): 0
- Plant response rating, Velvetleaf (velvetleaf; [6]): 0
- Bedstraw plant response rating (bedstraw; [5]): 0
- Plant response rating, Bedstraw (bedstraw; [6]): 0
- Plant response rating, Bedstraw (bedstraw; [7]): 0
- Plant response rating, Bedstraw (bedstraw; [8]): 0
